In patent publication US20140329858A1, “Cyclic Urea Derivatives As Androgen Receptor Antagonists” (priority 2011, published 2014):
pIC50: −log10 of the molar value.

The molecules below were run on Vcap cells (assay: Dihydrotestosterone (DHT) mediated XTT cell proliferation assay for screening AR antagonists using Vcap cells). Details: Homo sapiens, 240 h, in the presence of 0.2 nM DHT, XTT readout on Day 10, IC50 curves from 8 concentrations.
Assay type: cell-based
Procedure, shortened: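 VCaP cells, starved 5 days in phenol red-free DMEM with 8% charcoal-stripped serum, were plated and treated on Day 4 with compound (0.1 nM-30 μM, 8 concentrations) plus 0.2 nM DHT, redosed Day 7. On Day 10 viability was read by XTT at 465 nm; IC50 from sigmoidal dose-response fit.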

| SMILES | pIC50 |
| --- | --- |
| N#Cc1ccc(N2C(=O)N(c3ccc(C(N)=O)c(F)c3)[C@H]3CCCC[C@@H]32)cc1C(F)(F)F [Example 31, 4-((3aS,7aS)-3-(4-cyano-3-(trifluoromethyl)phenyl)-2-oxooctahydro-1H-benzo[d]imidazol-1-yl)-2-fluorobenzamide] | 7.43 |
| N#Cc1ccc(N2C(=O)N(c3ccc(C(=O)NCCO)c(F)c3)[C@H]3CCCC[C@@H]32)cc1C(F)(F)F [Example 33, 4-((3aS,7aS)-3-(4-cyano-3-(trifluoromethyl)phenyl)-2-oxooctahydro-1H-benzo[d]imidazol-1-yl)-2-fluoro-N-(2-hydroxyethyl)benzamide] | 7.36 |
| N#Cc1ccc(N2C(=O)N(c3ccc(C(=O)N[C@@H]4CCOC4)c(F)c3)[C@H]3CCCC[C@@H]32)cc1C(F)(F)F [Example 36] | 6.69 |
| N#Cc1ccc(N2C(=O)N(c3ccc(C(=O)NC(CO)CO)c(F)c3)[C@H]3CCCC[C@@H]32)cc1C(F)(F)F [Example 37, 4-((3aS,7aS)-3-(4-cyano-3-(trifluoromethyl)phenyl)-2-oxooctahydro-1H-benzo[d]imidazol-1-yl)-N-(1,3-dihydroxypropan-2-yl)-2-fluorobenzamide] | 5.22 |
| CNC(=S)c1ccc(N2C(=O)N(c3ccc(C#N)c(C(F)(F)F)c3)[C@H]3CCCC[C@@H]32)cc1F [Example 41, 4-((3aS,7 aS)-3-(4-cyano-3-(trifluoromethyl)phenyl)-2-oxooctahydro-1H-benzo[d]imidazol-1-yl)-2-fluoro-N-methylbenzothioamide] | 6.87 |
| N#Cc1ccc(N2C(=O)N(c3cc(Cl)cc(Cl)c3)[C@H]3CCCC[C@@H]32)cc1C(F)(F)F [Example 44, 4-((3aS,7aS)-3-(3,5-dichlorophenyl)-2-oxooctahydro-1H-benzo[d]imidazol-1-yl)-2-(trifluoromethyl)benzonitrile] | 7.02 |
| CC(=O)c1ccc(N2C(=O)N(c3ccc(C#N)c(C(F)(F)F)c3)[C@H]3CCCC[C@@H]32)cc1F [Example 45, 4-((3aS,7aS)-3-(4-acetyl-3-fluorophenyl)-2-oxooctahydro-1H-benzo[d]imidazol-1-yl)-2-(trifluoromethyl)benzonitrile] | 5.99 |
| N#Cc1ccc(N2C(=O)N(c3ccc(CO)c(F)c3)[C@H]3CCCC[C@@H]32)cc1C(F)(F)F [Example 46, 4-((3aS,7aS)-3-(3-fluoro-4-(hydroxymethyl)phenyl)-2-oxooctahydro-1H-benzo[d]imidazol-1-yl)-2-(trifluoromethyl)benzonitrile] | 6.18 |
| CNC(=O)c1ccc(N2C(=O)N(c3ccc(C#N)c(C(F)(F)F)c3)[C@H]3CCCC[C@@H]32)cn1 [Example 54, 5-((3aS,7aS)-3-(4-cyano-3-(trifluoromethyl)phenyl)-2-oxooctahydro-1H-benzo[d]imidazol-1-yl)-N-methylpicolinamide] | 6.61 |
| N#Cc1ccc(N2C(=O)N(c3ccc(C(N)=O)nc3)[C@H]3CCCC[C@@H]32)cc1C(F)(F)F [Example 55, 5-((3aS,7aS)-3-(4-cyano-3-(trifluoromethyl)phenyl)-2-oxooctahydro-1H-benzo[d]imidazol-1-yl)picolinamide] | 6.76 |
| CNC(=O)c1cc(N2C(=O)N(c3ccc(C#N)c(C(F)(F)F)c3)[C@H]3CCCC[C@@H]32)ccn1 [Example 56, 4-((3aS,7aS)-3-(4-cyano-3-(trifluoromethyl)phenyl)-2-oxooctahydro-1H-benzo[d]imidazol-1-yl)-N-methylpicolinamide] | 5.74 |
| N#Cc1ccc(N2C(=O)N(c3ccnc(C(N)=O)c3)[C@H]3CCCC[C@@H]32)cc1C(F)(F)F [Example 57, 4-((3aS,7aS)-3-(4-cyano-3-(trifluoromethyl)phenyl)-2-oxooctahydro-1H-benzo[d]imidazol-1-yl)picolinamide] | 6.58 |
| N#Cc1ccc(N2C(=O)N(c3ccc4c(c3)CCO4)[C@H]3CCCC[C@@H]32)cc1C(F)(F)F [Example 58, 4-((3aS,7aS)-3-(2,3-dihydrobenzofuran-5-yl)-2-oxooctahydro-1H-benzo[d]imidazol-1-yl)-2-(trifluoromethyl)benzonitrile] | 6.26 |
| N#Cc1ccc(N2C(=O)N(c3ccc(Cl)cc3)[C@H]3CCCC[C@@H]32)cc1C(F)(F)F [Example 61, 4-((3aS,7aS)-3-(4-chlorophenyl)-2-oxooctahydro-1H-benzo[d]imidazol-1-yl)-2-(trifluoromethyl)benzonitrile] | 6.46 |
| N#Cc1ccc(N2C(=O)N(c3cnccc3C3CC3)[C@H]3CCCC[C@@H]32)cc1C(F)(F)F [Example 62, 4-((3aS,7aS)-3-(4-cyclopropylpyridin-3-yl)-2-oxooctahydro-1H-benzo[d]imidazol-1-yl)-2-(trifluoromethyl)benzonitrile] | 5.67 |
| Cc1ccncc1N1C(=O)N(c2ccc(C#N)c(C(F)(F)F)c2)[C@H]2CCCC[C@@H]21 [Example 63, 4-((3aS,7aS)-3-(4-methylpyridin-3-yl)-2-oxooctahydro-1H-benzo[d]imidazol-1-yl)-2-(trifluoromethyl)benzonitrile] | 5.64 |
| N#Cc1ccc(N2C(=O)N(c3ccc(C(N)=O)cc3)[C@H]3CCCC[C@@H]32)cc1C(F)(F)F [Example 66, 4-((3aS,7aS)-3-(4-cyano-3-(trifluoromethyl)phenyl)-2-oxooctahydro-1H-benzo[d]imidazol-1-yl)benzamide] | 6.58 |
| Cc1cc(N2C(=O)N(c3ccc(C#N)c(C(F)(F)F)c3)[C@H]3CCCC[C@@H]32)ccc1C(=O)O [Example 69, 4-((3aS,7aS)-3-(4-cyano-3-(trifluoromethyl)phenyl)-2-oxooctahydro-1H-benzo[d]imidazol-1-yl)-2-methylbenzoic acid] | < 5.00 |
| Cc1cc(N2C(=O)N(c3ccc(C#N)c(C(F)(F)F)c3)[C@H]3CCCC[C@@H]32)ccc1C(N)=O [Example 70, 4-((3aS,7aS)-3-(4-cyano-3-(trifluoromethyl)phenyl)-2-oxooctahydro-1H-benzo[d]imidazol-1-yl)-2-methylbenzamide] | 6.14 |
| CN1C(=O)N(c2ccc(C#N)c(C(F)(F)F)c2)[C@@H]2CCC(c3ccccc3)C[C@H]21 (stereo partly drawn) [Example 90, Trans-4-(3-methyl-2-oxo-5-phenyloctahydro-1H-benzo[d]imidazol-1-yl)-2-(trifluoromethyl)benzonitrile] | 6.43 |
